Measurements reported in paper PMC11204507, “Mechanistic Insights into the Neurotoxicity of 2,5-Dimethoxyphenethylamines (2C) and Corresponding N-(2-methoxybenzyl)phenethylamine (NBOMe) Drugs” (Journal of Xenobiotics, 2024).

Columns and labels:
[1] = test system: differentiated SH-SY5Y cells; experiment: Intracellular ATP levels, luciferin-luciferase bioluminescence; type: cell-based, human
Protocol: Adenosine triphosphate (ATP) is often considered the primary energy currency of cells, being essential for several cellular activities, such as active transport, metabolism, and cell signaling, among many others. The intracellular ATP levels were measured using a bioluminescence method, consisting of the reaction between luciferin and ATP in the presence of luciferase, where the resulting light intensity is directly proportional to the amount of ATP present in the cells.
Thus, the SH-SY5Y cells were seeded onto 6-well plates (25,000 cells/cm^2) following the previously described seeding and differentiation protocol. On the day of the experiment, the cells were exposed to different concentrations of the tested drugs (EC20 and EC50) for 24 h (37 °C, 5% CO2). At the end of the incubation period, the cells were centrifuged (5 min, 250× g, 4 °C), the supernatants were rejected, and proteins were precipitated with 5% HClO4 for at least 30 min (4 °C). Subsequently, the acidic samples were collected from the plates, centrifuged (5 min, 16,000× g, 4 °C), and the supernatants were stored until further ATP analysis (−80 °C). To assess protein content, the pellets were resuspended in 1 M NaOH, maintained at 4 °C overnight, and stored until further analysis (−20 °C). A Bio-Rad DC™ protein assay kit (Bio-Rad Laboratories, Hercules, CA, USA) was used to analyze protein content, in accordance with the manufacturer’s guidelines.
Before the ATP quantification, the acidic samples were diluted (1:5) with 5% HClO4, and the diluted samples/standards were neutralized with an ice-cold KHCO3 solution (1:1) and centrifuged (16,000× g, 5 min, 4 °C). Then, 75 µL of each sample/standard supernatant was transferred into a white 96-well plate, 75 µL of a luciferin (300 µM)-luciferase (3,000,000 U/mL) solution (10–90%, respectively) was added, and bioluminescence (560 nm, 28 °C) was immediately measured in a multi-well plate reader (PowerWaveX, BioTek Instruments, Winooski, VT, USA).
ATP levels were standardized to protein content. The results are presented as a percentage relative to the control cells (0 µM). A minimum of 6 independent experiments were conducted in duplicate.

[2] = test system: differentiated SH-SY5Y cells; experiment: Mitochondrial membrane potential, JC-1 dye; type: cell-based, human; settings: control 100.0%
Description: Mitochondrial membrane potential (ΔΨm) is a valuable parameter that reflects the energy status and functional integrity of cells, and the JC-1 dye is widely used as an indicator of ΔΨm. In healthy cells with high ΔΨm, JC-1 forms J-aggregates that emit red fluorescence. In apoptotic or unhealthy cells with low ΔΨm, JC-1 remains in its monomeric form and emits green fluorescence. The ratio of red to green fluorescence intensity is proportional to the degree of polarization of the mitochondrial membrane (a higher ratio indicates a more polarized membrane).
Thus, the SH-SY5Y cells were seeded onto 24-well plates (25,000 cells/cm^2) following the previously described seeding and differentiation protocol. On the day of the experiment, the cells were exposed to different concentrations of the tested drugs (EC20 and EC50) for 24 h (37 °C, 5% CO2). CCCP (100 µM, 2 h) was used as a positive control for mitochondrial membrane depolarization. At the end of the incubation period, the medium was removed, and the cells were incubated, for 30 min, with 10 µM JC-1 under light protection (37 °C, 5% CO2). Subsequently, the plates were centrifuged (5 min, 300× g, room temperature), the supernatants were rejected, and the cells were washed 2 times with warm HBSS with calcium and magnesium. Fluorescence was recorded at the wavelengths of 485 nm excitation and 535 nm emission for JC-1 monomers and 535 nm excitation and 595 nm emission wavelengths for J-aggregates in a multi-well plate reader (PowerWaveX, BioTek Instruments, Winooski, VT, USA). The results are presented as the percentage of JC-1 red/green fluorescence ratio relative to the control cells, and a minimum of 5 independent experiments were conducted in triplicate.

[3] = test system: MAO-A and MAO-B; settings: rat model; cited from earlier work
[4] = test system: differentiated SH-SY5Y cells; experiment: MTT reduction cytotoxicity assay; type: cell-based, human; settings: for EC50: Homo sapiens, differentiated SH-SY5Y cells, 24 h of exposure, mean (95% CI); for Bottom (baseline, % control) / Top (maximal cell death, % control): fitted MTT curve, SH-SY5Y cells, 24 h
Protocol: The cells were seeded at a density of 25,000 cells/cm^2. To achieve a more mature neuron-like phenotype, SH-SY5Y cells were initially cultured in a complete medium supplemented with RA (10 µM). Subsequently, 3 days post-seeding, TPA (80 nM) was added to each well, and the cells were maintained for another 3 days until use, thus achieving a dopaminergic phenotype. In all the experiments, the cells were used between passages 22 and 28.
The differentiated SH-SY5Y cells (25,000 cells/cm^2) and primary rat cortical cultures (150,000 cells/cm^2) were seeded onto 96-well plates as previously described.
Accordingly, 6 days after seeding (differentiated SH-SY5Y cells) or at 8 DIV (primary cultures), the cells were exposed, for 24 h (37 °C, 5% CO2), to different concentrations of the drugs (0–1000 µM). Thus, the tested concentrations ranged from 0 to 1000 µM for 2C-T-2 and 2C-T-4; 0 to 500 µM for 2C-T-7; 0 to 250 µM for 25T2-NBOMe, and 0 to 100 µM for 25T4-NBOMe and 25T7-NBOMe.
The MTT reduction assay is based on the capacity of metabolically active cells to reduce the water-soluble yellow tetrazolium dye (MTT) into water-insoluble formazan crystals. In brief, after 24 h of exposure to the tested drugs, the differentiated SH-SY5Y cells were incubated with MTT (0.5 mg/mL in complete medium) for 90 min, at 37 °C, in a 5% CO2-95% air atmosphere. To solubilize the formed formazan crystals, an organic solvent (DMSO) was used, and the absorbance was then measured at 550 nm in a multi-well plate reader (PowerWaveX, BioTek Instruments, Winooski, VT, USA). The cytotoxicity was estimated by the percentage of MTT reduction relative to the control cells, and a minimum of 4 independent experiments were conducted in triplicate.

[5] = test system: serotonergic B65 cells; set-up: method as in doi:10.1007/s11419-020-00527-w; settings: 50 μM, 3 h exposure; cited from earlier work

Q: With `CCSc1cc(OC)c(CCN)cc1OC.Cl` [2C-T-2, 2-(4-(ethylthio)-2,5-dimethoxyphenyl)ethan-1-aminium chloride] as the compound, how does the “decrease of intracellular ATP levels relative to control cells” value ([1]; drug at its EC20, 24 h) read?
A: 18.1%

Q: And the “decrease of intracellular ATP levels relative to control cells” value ([1]; drug at its EC50, 24 h)?
A: 24.8%

Q: What about the “mitochondrial membrane polarization (JC-1 red/green ratio), % of the control cells” value ([2]; drug at its EC20, 24 h) of the same compound?
A: 58.4%

Q: And the “mitochondrial membrane polarization (JC-1 red/green ratio), % of the control cells” value ([2]; drug at its EC50, 24 h)?
A: 55.2%

Q: And the “deamination by MAO-A and MAO-B” value [3]?
A: both isoenzymes can catalyze the deamination

Q: And the EC50 [4]?
A: 306 µM

Q: What about the “Bottom (baseline, % control)” value [4] of the same compound?
A: 4.516 % control

Q: What about the “Top (maximal cell death, % control)” value [4] of the same compound?
A: 97.13 % control

Q: What about the “mitochondrial production of ROS” value [5] of the same compound?
A: increase in the mitochondrial production of ROS

Q: Which “decrease of intracellular ATP levels relative to control cells” value ([1]; drug at its EC20, 24 h) does the source give for `COc1cc(SC(C)C)c(OC)cc1CCN.Cl` [2C-T-4, 2-(4-(isopropylthio)-2,5-dimethoxyphenyl)ethan-1-aminium chloride] here?
A: 17.8%

Q: And the “decrease of intracellular ATP levels relative to control cells” value ([1]; drug at its EC50, 24 h)?
A: 28.7%

Q: What about the “mitochondrial membrane polarization (JC-1 red/green ratio), % of the control cells” value ([2]; drug at its EC20, 24 h) of the same compound?
A: 58.3%

Q: What about the “mitochondrial membrane polarization (JC-1 red/green ratio), % of the control cells” value ([2]; drug at its EC50, 24 h) of the same compound?
A: 56.1%

Q: What about the EC50 [4] of the same compound?
A: 191 µM

Q: What about the “Bottom (baseline, % control)” value [4] of the same compound?
A: 4.106 % control

Q: And the “Top (maximal cell death, % control)” value [4]?
A: 99.28 % control

Q: And the “mitochondrial production of ROS” value [5]?
A: no significant alterations

Q: Which “decrease of intracellular ATP levels relative to control cells” value ([1]; drug at its EC20, 24 h) does the source give for `CCCSc1cc(OC)c(CCN)cc1OC.Cl` [2C-T-7, 2-(2,5-dimethoxy-4-(propylthio)phenyl)ethan-1-aminium chloride] here?
A: 16.9%

Q: And the “decrease of intracellular ATP levels relative to control cells” value ([1]; drug at its EC50, 24 h)?
A: 24.1%

Q: And the “mitochondrial membrane polarization (JC-1 red/green ratio), % of the control cells” value ([2]; drug at its EC20, 24 h)?
A: 50.8%

Q: What about the “mitochondrial membrane polarization (JC-1 red/green ratio), % of the control cells” value ([2]; drug at its EC50, 24 h) of the same compound?
A: 50.0%

Q: And the “deamination by MAO-A and MAO-B” value [3]?
A: both isoenzymes can catalyze the deamination

Q: And the EC50 [4]?
A: 92.3 µM

Q: What about the “Bottom (baseline, % control)” value [4] of the same compound?
A: 5.625 % control

Q: And the “Top (maximal cell death, % control)” value [4]?
A: 100.0 % control

Q: And the “mitochondrial production of ROS” value [5]?
A: increase in the mitochondrial production of ROS

Q: With `CCSc1cc(OC)c(CCNCc2ccccc2OC)cc1OC.Cl` [25T2-NBOMe, 2-(4-(ethylthio)-2,5-dimethoxyphenyl)-N-(2-methoxybenzyl)ethan-1-aminium chloride] as the compound, how does the “decrease of intracellular ATP levels relative to control cells” value ([1]; drug at its EC20, 24 h) read?
A: 16.0%

Q: What about the “decrease of intracellular ATP levels relative to control cells” value ([1]; drug at its EC50, 24 h) of the same compound?
A: 23.5%

Q: And the “mitochondrial membrane polarization (JC-1 red/green ratio), % of the control cells” value ([2]; drug at its EC20, 24 h)?
A: 78.7%

Q: What about the “mitochondrial membrane polarization (JC-1 red/green ratio), % of the control cells” value ([2]; drug at its EC50, 24 h) of the same compound?
A: 74.3%

Q: And the EC50 [4]?
A: 46.8 µM

Q: And the “Bottom (baseline, % control)” value [4]?
A: 3.123 % control

Q: What about the “Top (maximal cell death, % control)” value [4] of the same compound?
A: 95.97 % control

Q: For `COc1cc(SC(C)C)c(OC)cc1CCNCc1ccccc1OC.Cl` [25T4-NBOMe, 2-(4-(isopropylthio)-2,5-dimethoxyphenyl)-N-(2-methoxybenzyl)ethan-1-aminium chloride], which “decrease of intracellular ATP levels relative to control cells” value ([1]; drug at its EC20, 24 h) is on record?
A: 14.6%

Q: And the “decrease of intracellular ATP levels relative to control cells” value ([1]; drug at its EC50, 24 h)?
A: 21.8%

Q: And the “mitochondrial membrane polarization (JC-1 red/green ratio), % of the control cells” value ([2]; drug at its EC20, 24 h)?
A: 83.5%

Q: What about the “mitochondrial membrane polarization (JC-1 red/green ratio), % of the control cells” value ([2]; drug at its EC50, 24 h) of the same compound?
A: 70.5%

Q: What about the EC50 [4] of the same compound?
A: 36 µM

Q: And the “Bottom (baseline, % control)” value [4]?
A: 1.753 % control

Q: And the “Top (maximal cell death, % control)” value [4]?
A: 100.0 % control

Q: For `CCCSc1cc(OC)c(CCNCc2ccccc2OC)cc1OC.Cl` [25T7-NBOMe, 2-(2,5-dimethoxy-4-(propylthio)phenyl)-N-(2-methoxybenzyl)ethan-1-aminium chloride], which “decrease of intracellular ATP levels relative to control cells” value ([1]; drug at its EC20, 24 h) is on record?
A: 12.0%

Q: And the “decrease of intracellular ATP levels relative to control cells” value ([1]; drug at its EC50, 24 h)?
A: 21.4%

Q: And the “mitochondrial membrane polarization (JC-1 red/green ratio), % of the control cells” value ([2]; drug at its EC20, 24 h)?
A: 90.8%

Q: And the “mitochondrial membrane polarization (JC-1 red/green ratio), % of the control cells” value ([2]; drug at its EC50, 24 h)?
A: 76.8%

Q: And the EC50 [4]?
A: 23.3 µM

Q: And the “Bottom (baseline, % control)” value [4]?
A: 2.444 % control

Q: And the “Top (maximal cell death, % control)” value [4]?
A: 96.91 % control
